Legend:
[1] = tested on: Candida albicans; assay: MIC by impregnated disk method, Candida albicans; format: cell-based
Method: (§1) Stock solutions of the antifungal agents to be tested are preferably prepared by diluting the antifungal agents in the proper nutrient medium. It is presently preferred to prepare dilutions in 10 ml of the proper medium to give the following final concentrations when applied to the disks (all quantities in micrograms per milliliter): 0.05, 0.08, 0.09, 0.1; 0.1 increment increases to 0.9, 1.0; 0.5 increment increases to 10.0; and 12.0, 14.0, 20.0, 25.0 and 50.0. Disks have been prepared by placing 0.05 ml of the above dilutions of antifungal agent containing medium on 6.5 mm diameter disks in 0.01 or 0.02 ml increments. The impregnated disks are then allowed to dry at a temperature preferably below about 10° C. […] The disks may also be dried by a lyophilization or freeze drying process.
(§2) To perform the tests in accordance with the present inventions, disks impregnated with various concentrations of antifungal agent and nutrient medium and a control disk impregnated only with the corresponding nutrient medium are placed on the fungus to be tested which has been applied to the non-nutrient medium. The disks are the inoculated non-nutrient medium are then incubated at a suitable temperature for a sufficient time to promote growth of the fungus. Any temperature is suitable if it will promote growth of the fungus without adversely affecting the fungus or the activity of the antifungal agent or agents tested. The time of incubation can be determined by observing the extent of growth around the control disk. […] The zones of growth or inhibition around the disks were read at 6, 12, 24, 36 and 48 hours after the disks were placed on the tested fungus.
(§3) The minimum inhibitory concentration is defined as the lowest concentration of antifungal agent which inhibits visible growth. The disks containing concentrations of antifungal agents below the minimum inhibitory concentration show circumscribed growth of the fungus around the disk. Disks containing concentrations of antifungal agent at or above the minimum inhibitory concentration show no circumscribed growth.
(§4) Clinical isolates of various fungi listed in Table 1 were obtained from different patients diagnosed as having fungal infections. The fungal inocula were prepared by using a 24-48 hour cultures grown in yeast nitrogen base containing 1% glucose and 0.15% asparagine. After centrifuging, the supernatant was removed, the sedimented cells were washed twice with sterile distilled water and a cell suspension was adjusted to 80% transmission at 520 nm using a Beckman DB-GT grating spectrophotometer.
(§5) Sterile liquified 2% purified agar was placed in petri dishes and allowed to harden. The surface of the agar was inoculated with a sterile cotton swab saturated with a suspension of an organism. The uniformly swabbed plates were then allowed to dry.
(§6) Disks were prepared using the dilutions described above for amphotericin B, nystatin and 5-fluorocytosine. 0.05 ml of the dilutions of each antifungal agent diluted with the appropriate nutrient medium were pipetted on 6.5 mm diameter disks. The disks were dried at 4° C. after each application. Control disks were also prepared.
(§7) Several test disks and a control disk were placed in each petri dish containing the inoculated agar. The disks and petri dishes were then incubated at 29° C. and the minimum inhibitory concentration of the various concentrations of the antifungal agents were read at 6, 12, 24, 36 and 48 hours.
(§8) In 10 duplicate runs with each strain tested, the variation in minimum inhibitory concentration averaged ±0.05 μg/ml.

[2] = tested on: Candida albicans; assay: MIC by broth dilution method, Candida albicans; format: cell-based
Description: (§9) The preparation of the nutrient media, the antifungal agents and the fungi to be tested in the present invention are similar to those reported in S. Shadomy and A. Espinel-Ingroff, "Susceptibility Testing Of Antifungal Agents", Ch. 63, pp. 569-574 in E. H. Lennett, E. H. Spaulding, and J. P. Truant, Eds., Manual Of Clinical Microbiology, 2nd Ed., American Society for Microbiology, Washington, D.C. (1974). This publication describes the susceptibility testing of antifungal agents, namely, amphotericin B, nystatin and 5-fluoro-cytosine (5-FC), by the "broth dilution method" and the "semisolid agar dilution method". At pages 570-571, it is stated:
as §8
(§10) *Broth dilution method conducted in accordance with S. Shadomy and E.
(§11) Espinel-Ingroff, "Susceptibility Testing of Antifungal Agents", Ch. 63,
(§12) pp. 569-574 in E. H. Spaulding and J. P. Truant, Eds., Manual Of Clinical
(§13) Microbiology, 2nd Ed., American Society for Microbiology, Washington, […]

[3] = tested on: C. parapsilosis; assay: MIC by impregnated disk method, Candida parapsilosis; format: cell-based
Method: as §1, §2, §3, §4, §5, §6, §7, §8

[4] = tested on: C. parapsilosis; assay: MIC by broth dilution method, Candida parapsilosis; format: cell-based
Description: as §9, §8, §10, §11, §12, §13

[5] = tested on: C. tropicalis; assay: MIC by impregnated disk method, Candida tropicalis; format: cell-based; details: C. tropicalis; disk method
Method: as §1, §2
(§14) The minimum inhibitory concentration is defined as the lowest concentration of antifungal agent which inhibits visible growth. […]
(§15) Several test disks and a control disk were placed in each petri dish containing the inoculated agar. The disks and petri dishes were then incubated at 29° C. and the minimum inhibitory concentration of the various concentrations of the antifungal agents were read at 6, 12, 24, 36 and 48 hours. […]

[6] = tested on: C. tropicalis; assay: MIC by broth dilution method, Candida tropicalis; format: cell-based; details: C. tropicalis; broth dilution method
Description: as §9, §8, §10, §11, §12, §13

[7] = tested on: Cryptococcus neoformans; assay: MIC by impregnated disk method, Cryptococcus neoformans; format: cell-based
Method: as §1, §2, §3, §4, §5, §6, §7, §8

[8] = tested on: Cryptococcus neoformans; assay: MIC by broth dilution method, Cryptococcus neoformans; format: cell-based
Description: as §9, §8, §10, §11, §12, §13

[9] = tested on: Geotrichum candidum; assay: MIC by impregnated disk method, Geotrichum candidum; format: cell-based; details: disk method
Method: as §1, §2, §14, §15

[10] = tested on: Geotrichum candidum; assay: MIC by broth dilution method, Geotrichum candidum; format: cell-based; details: broth dilution method
Description: as §9, §8, §10, §11, §12, §13

[11] = tested on: Saccharomyces cerevisiae; assay: MIC by impregnated disk method, Saccharomyces cerevisiae; format: cell-based
Method: as §1, §2, §3, §4, §5, §6, §7, §8

[12] = tested on: Saccharomyces cerevisiae; assay: MIC by broth dilution method, Saccharomyces cerevisiae; format: cell-based
Description: as §9, §8, §10, §11, §12, §13

[13] = tested on: Trichosporon sp.; assay: MIC by impregnated disk method, Trichosporon sp.; format: cell-based; details: Trichosporon sp.; disk method
Method: as §1, §2, §14, §15

[14] = tested on: Trichosporon sp.; assay: MIC by broth dilution method, Trichosporon sp.; format: cell-based; details: Trichosporon sp.; broth dilution method
Description: as §9, §8, §10, §11, §12, §13

[15] = tested on: Torulopsis glabrata; assay: MIC by impregnated disk method, Torulopsis glabrata; format: cell-based; details: Torulopsis glabrata; disk method
Method: as §1, §2, §14, §15

[16] = tested on: Torulopsis glabrata; assay: MIC by broth dilution method, Torulopsis glabrata; format: cell-based; details: Torulopsis glabrata; broth dilution method
Description: as §9, §8, §10, §11, §12, §13

[17] = cited from earlier work
[18] = Cryptococcus neoformans isolate 1
[19] = Saccharomyces cerevisiae isolate 1

With `C[C@@H]1[C@H](O)[C@@H](C)/C=C/C=C/CC/C=C/C=C/C=C/C=C/C(O[C@H]2O[C@H](C)[C@@H](O)[C@H](N)[C@@H]2O)CC2O[C@](O)(CC(O)C(O)CCC(O)CC(O)CC(O)CC(=O)O[C@H]1C)CC(O)C2C(=O)O` (stereo partly shown) [Nystatin, nystatin] as the compound, how does the “Minimum Inhibitory Concentration, Disk” value ([1]; isolate 1) read?
The value was 1.50 µg/mL.

What about the “Minimum Inhibitory Concentration, Disk” value ([1]; isolate 2) of the same compound?
Its value is 4.50 µg/mL.

What about the “Minimum Inhibitory Concentration, Disk” value ([1]; isolate 3) of the same compound?
The value was 1.50 µg/mL.

And the “Minimum Inhibitory Concentration, Disk” value ([1]; isolate 4)?
The value was 3.50 µg/mL.

And the “Minimum Inhibitory Concentration, Disk” value ([1]; isolate 5)?
The value was 4.00 µg/mL.

And the “Minimum Inhibitory Concentration, Disk” value ([1]; isolate 6)?
The value was 6.50 µg/mL.

And the “Minimum Inhibitory Concentration, Disk” value ([1]; isolate 7)?
Its value is 0.30 µg/mL.

And the “Minimum Inhibitory Concentration, Broth” value ([2]; isolate 1)?
Its value is 1.50 µg/mL.

What about the “Minimum Inhibitory Concentration, Broth” value ([2]; isolate 2) of the same compound?
The value was 5.00 µg/mL.

What about the “Minimum Inhibitory Concentration, Broth” value ([2]; isolate 3) of the same compound?
Its value is 1.50 µg/mL.

And the “Minimum Inhibitory Concentration, Broth” value ([2]; isolate 4)?
The value was 3.50 µg/mL.

What about the “Minimum Inhibitory Concentration, Broth” value ([2]; isolate 5) of the same compound?
The value was 4.00 µg/mL.

What about the “Minimum Inhibitory Concentration, Broth” value ([2]; isolate 6) of the same compound?
Its value is 6.00 µg/mL.

What about the “Minimum Inhibitory Concentration, Broth” value ([2]; isolate 7) of the same compound?
Its value is 0.20 µg/mL.

What about the “Minimum Inhibitory Concentration, Disk” value ([3]; C. parapsilosis isolate 1) of the same compound?
The value was 3.50 µg/mL.

And the “Minimum Inhibitory Concentration, Disk” value ([3]; C. parapsilosis isolate 2)?
Its value is 4.50 µg/mL.

What about the “Minimum Inhibitory Concentration, Broth” value ([4]; C. parapsilosis isolate 1) of the same compound?
The value was 4.50 µg/mL.

And the “Minimum Inhibitory Concentration, Broth” value ([4]; C. parapsilosis isolate 2)?
Its value is 5.00 µg/mL.

And the “Minimum Inhibitory Concentration, Disk” value [5]?
Its value is 5.50 µg/mL.

And the “Minimum Inhibitory Concentration, Broth” value [6]?
Its value is 6.00 µg/mL.

What about the “Minimum Inhibitory Concentration, Disk” value ([7]; C. neoformans isolate 2) of the same compound?
The value was 3.00 µg/mL.

And the “Minimum Inhibitory Concentration, Disk” value [7, 18]?
Its value is 2.00 µg/mL.

What about the “Minimum Inhibitory Concentration, Broth” value ([8]; C. neoformans isolate 2) of the same compound?
Its value is 3.00 µg/mL.

What about the “Minimum Inhibitory Concentration, Broth” value [8, 18] of the same compound?
The value was 2.50 µg/mL.

And the “Minimum Inhibitory Concentration, Disk” value [9]?
The value was 5.00 µg/mL.

And the “Minimum Inhibitory Concentration, Broth” value [10]?
Its value is 4.50 µg/mL.

What about the “Minimum Inhibitory Concentration, Disk” value ([11]; S. cerevisiae isolate 2) of the same compound?
The value was 1.00 µg/mL.

And the “Minimum Inhibitory Concentration, Disk” value [11, 19]?
Its value is 2.00 µg/mL.

What about the “Minimum Inhibitory Concentration, Broth” value ([12]; S. cerevisiae isolate 2) of the same compound?
The value was 2.00 µg/mL.

And the “Minimum Inhibitory Concentration, Broth” value [12, 19]?
The value was 2.50 µg/mL.

What about the “Minimum Inhibitory Concentration, Disk” value [13] of the same compound?
Its value is 3.50 µg/mL.

And the “Minimum Inhibitory Concentration, Broth” value [14]?
The value was 3.00 µg/mL.

What about the “Minimum Inhibitory Concentration, Disk” value [15] of the same compound?
The value was 3.00 µg/mL.

And the “Minimum Inhibitory Concentration, Broth” value [16]?
The value was 4.50 µg/mL.

What about the stability in acid ([17]; in the presence of acid) of the same compound?
Its stability in acid is “unstable in the presence of acid”.

What about the thermal stability ([17]; upon incubation) of the same compound?
Its thermal stability is “subject to thermal destruction upon incubation”.

What about the solubility in water ([17]; water) of the same compound?
Its solubility in water is “insoluble in water”.

From patent US4168206A, “Impregnated disk method for testing antifungal susceptibility” (Philadelphia College of Osteopathic Medicine, priority 1977, dated 1979)
